Data taken from US5364848A, “Substituted cephalosporin sulfones as anti-inflammatory and antidegenerative agents” (Merck & Co., Inc., priority 1992, dated 1994).
In brackets after ≈: the same amount, converted by molar mass. Read-outs that look alike come from different tables or passages of the source. Each block holds one molecule with its values, some of them ahead of it.

Legend:
[1] = system: PG synthesis; conditions: background statement; cited from earlier work
[2] = system: elastase both from the pancreas and the PMN; conditions: background statement; cited from earlier work
[3] = target: T1, Human Polymorphonuclear Leukocyte Elastase (Homo sapiens, UniProt P08246); assay: biochemical
T1 sequence (P08246 30-247 limits assumed): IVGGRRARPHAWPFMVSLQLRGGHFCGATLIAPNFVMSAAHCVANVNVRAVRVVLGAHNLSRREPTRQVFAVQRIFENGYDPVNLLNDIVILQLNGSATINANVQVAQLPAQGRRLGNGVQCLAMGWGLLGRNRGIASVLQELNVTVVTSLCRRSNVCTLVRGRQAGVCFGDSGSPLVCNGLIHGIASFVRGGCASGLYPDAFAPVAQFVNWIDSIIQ
Description: Protocol--Enzyme Assays for the Inhibition of Human Polymorphonuclear Leukocyte Elastase Via Hydrolysis of N-t-Boc-alanyl-alanyl-prolylalanine-p-nitroanilide Reagents:
0.05M TES (N-tris[hydroxymethyl]methyl-2-amino-ethanesulfonic acid) Buffer, pH 7.5.
0.2 mMN-t-Boc-alanyl -alanyl -prolyl-alanine-p-nitroanilide (Boc-AAPAN).
To prepare substrate, the solid (m.w. 550) was first dissolved in 10.0 ml DMSO. Buffer at pH 7.5 was then added to a final volume of 100 ml.
Crude extract of human polymorphonuclear leukocytes (PMN) containing elastase activity.
Inhibitors (cephalosporin sulfone esters) to be tested dissolved in DMSO just before use.
To 1.0 ml of 0.2 mM Boc-AAPAN in a cuvette, 0.01-0.1 ml of DMSO with or without inhibitor was added. After mixing, a measurement was taken at 410 mμ to detect any spontaneous hydrolysis due to presence of test compound. 0.05 Milliliters of PMN extract was then added and the ΔOD/min at 410 mμ was measured and recorded. Beckman model 35 spectrophotometer was used.
The elastase activity in the crude PMN extract may vary from one preparation to another. A control of each new batch is run, and the volume added in the assay procedure is adjusted according to activity.

[4] = Table II, 50% inhibition of the enzyme activity 2 minutes after zero time, crude PMN extract, pH 7.5, 0.2 mM Boc-AAPAN
[5] = Table II, 50% inhibition of the enzyme activity 2 minutes after zero time, crude PMN extract, pH 7.5, 0.2 mM Boc-AAPAN, read-out: ED50 (the source's name) (converted)

Molecule: COc1ccc2c(c1)c(CC(=O)O)c(C)n2C(=O)c1ccc(Cl)cc1 [indomethacin]
inhibition of PG synthesis [1]: inhibited

Molecule: α1 -Antitrypsin: a glycoprotein contained in human serum that has a wide inhibitory spectrum
inhibitory spectrum [2]: wide inhibitory spectrum covering, among other enzymes, elastase both from the pancreas and the PMN

Molecule: CCCCC1C(=O)N(c2ccccc2)N(c2ccccc2)C1=O [phenylbutazone]
inhibition of PG synthesis [1]: inhibited

ED50 [3, 4]: 0.15 µg/mL (≈ 0.426 µM)
Molecule: CO[C@H]1C(=O)N2C(C(=O)OC(C)(C)C)=C(CCl)CS(=O)(=O)C12 (stereo partly drawn) [R1=OCH3, M=CH2Cl, B=OtBu, Q=H, t-Butyl 3-chloromethyl-7α-methoxy-8-oxo-5-thia-1-azabicyclo[4.2.0]oct-2-ene-2-carboxylate-5,5-dioxide]

Molecule: CC(=O)OCC1=C(C(=O)OC(C)(C)C)N2C(=O)[C@H](F)[C@H]2S(=O)(=O)C1 [R1=F, M=CH2OCOCH3, B=OtBu, Q=H, t-Butyl 3-acetyloxymethyl-7α-fluoro-8-oxo-5-thia-1-azabicyclo[4.2.0]oct-2-ene-2-carboxylate-5,5-dioxide]
IC50 [3]: 82.6 nM

IC50 [3, 5]: 861 nM
Molecule: CCC1C(=O)N2C(C(=O)OC(C)(C)C)=C(COC(=O)C(N)c3ccccc3)CS(=O)(=O)C12 (stereo not drawn) [R1=C2H5, M=drawing 32, B=OtBu, Q=H]

Molecule: CO[C@H]1C(=O)N2C(C(=O)OC(C)(C)C)=C(C[S+]([O-])c3ccccc3)CS(=O)(=O)C12 (single isomer, unassigned) [R1=OCH3, M=CH2SO.phi., B=OtBu, Q=H, t-Butyl 3-phenylsulfinylmethyl-7α-methoxy-8-oxo-5-thia-1-azabicyclo[4.2.0]oct-2-ene-2-carboxylate-5,5-dioxide]
IC50 [3]: 181 nM

IC50 [3, 5]: 77 nM
Molecule: CO[C@H]1C(=O)N2C(C(=O)OC(C)(C)C)=C(COC(C)=O)C(C)S(=O)(=O)[C@H]12 (stereo partly drawn) [R1=OCH3, M=CH2OCOCH3, B=OtBu, Q=CH3]

Molecule: CO[C@H]1C(=O)N2C(C(=O)NCC(=O)OC(C)(C)C)=C(COC(C)=O)CS(=O)(=O)[C@H]12 [R1=OCH3, M=CH2OCOCH3, B=NHCH2COOtBu, Q=H, N-(t-Butoxycarbonyl)methyl 3-acetyloxymethyl-7α-methoxy-8-oxo-5-thia-1-azabicyclo[4.2.0]oct-2-ene-2-carboxamide-5,5 dioxide]
IC50 [3, 5]: 2080 nM

Molecule: COCC1=C(C(=O)OC(C)(C)C)N2C(=O)[C@H](OC)C2S(=O)(=O)C1 (stereo partly drawn) [R1=OCH3, M=CH2OCH3, B=OtBu, Q=H]
IC50 [3]: 864 nM

IC50 [3, 5]: 1250 nM
Molecule: COC1C(=O)N2C(C(=O)OC(C)(C)C)=C(COC(=O)c3ccccc3C(=O)O)CS(=O)(=O)C12 (stereo not drawn)

Molecule: CO[C@H]1C(=O)N2C(C(=O)OC(C)(C)C)=C(C)CS(=O)(=O)C12 (stereo partly drawn) [R1=OCH3, M=CH3, B=OtBu, Q=H, t-Butyl 3-methyl-7α-methoxy-8-oxo-5-thia-1-azabicyclo [4.2.0]oct-2-ene-2-carboxylate-5,5-dioxide]
ED50 [3, 4]: 1.0 µg/mL (≈ 3.15 µM)
